These results are taken from patent US11052151B2, “Diagnosis and treatment of autism spectrum disorder” (California Institute of Technology, priority 2012, dated 2021).

One series concerns CNTNAP2 knockout mice. Conditions: cited from earlier work.
The next series deals with ASD individuals. Conditions: cited from earlier work.
Series [1] has as its system naïve wild-type mice. Briefly: 4EPS sufficiency experiment: open field exploration. The class given is in vivo. The method, then:
The open field test is widely used to measure anxiety-like and locomotor behavior in rodents. Mice were placed in 50×50 cm white Plexiglas boxes for 10 minutes. An overhead video camera recorded the session, and Ethovision software (Noldus) was used to analyze the distance traveled, and the number of entries and duration of time spent in the center arena (central 17 cm square).
(§1) Wildtype mice were injected i.p. with saline or 30 mg/kg 4EPS potassium salt daily from 3 to 6 weeks of age. A dose-response curve was generated by measuring serum 4EPS levels at various times after i.p. injection of 30 mg/kg 4EPS (FIG. 15C). Mice were behaviorally tested as described above from 6 to 9 weeks of age.

For series [2], the system named is naïve wild-type mice. The series can be described thus: 4EPS sufficiency experiment: marble burying. The class given is in vivo. The settings on record: 4EPS-treated versus saline-treated mice. The protocol:
Marble burying is an elicited repetitive behavior in rodents analogous to those observed in autistic individuals (Silverman et al., 2010b). This test was conducted and analyzed according to methods described in Thomas et al., 2009 and Malkova et al., 2012. Mice were habituated for 10 minutes to a novel testing cage containing a 4 cm layer of chipped cedar wood bedding and then transferred to a new housing cage. 18 glass marbles (15 mm diameter) were aligned equidistantly 6×3 in the testing cage. Mice were returned to the testing cage and the number of marbles buried in 10 minutes was recorded.
as §1

Series [3] relates to naïve wild-type mice. The series can be described thus: 4EPS sufficiency experiment: pre-pulse inhibition and startle. The class given is in vivo. The settings on record: 30 mg/kg i.p. daily. The protocol: PPI tests are used as a measure of sensorimotor gating and were conducted and analyzed according to the procedure described in Geyer and Swerdlow, 2001 and Smith et al., 2007. Briefly, mice were acclimated to the testing chambers of the SR-LAB startle response system (San Diego Instruments) for 5 minutes, presented with six 120 db pulses of white noise (startle stimulus) and then subjected to 14 randomized blocks of either no startle, startle stimulus only, 5 db prepulse with startle or 15 db prepulse with startle. The startle response was recorded by a piezo-electric sensor, and the percent PPI is defined as: [((startle stimulus only—5 or 15 db prepulse with startle)/startle stimulus only)*100].
as §1

Series [4] can be described thus: Serum 4EPS after i.p. injection. The class given is in vivo. The settings on record: single i.p. injection of 30 mg/kg potassium 4EPS, adult wild-type mice. The protocol:
Authentic 4EPS and serum samples were analyzed by LC/MS using an Agilent […] HPLC system equipped with a photodiode array detector and interfaced to a model G1946C single quadrupole […] mass spectrometer. HPLC separations were obtained at 25° C. using an Agilent Zorbax XDB-C18 column (4.6 mm×50 mm×5 um particle size). The 4EPS ion was detected using selected ion monitoring for ions of m/z 200.9 and dwell time of 580 ms/ion, with the electrospray capillary set at 3 kV. […] For quantification of 4EPS in mouse sera, a dose-response curve was constructed by plotting the total ion count peak area for known concentrations of authentic potassium 4EPS against the analyte concentration (R^2=0.9998; FIG. 15B). Mouse serum samples were diluted four-fold with acetonitrile and centrifuged at 10,000 g at 4° C. for 3 minutes. 10 ul of supernatant was injected directly into the HPLC system.
as §1

Series [5] has as its system naïve wild-type mice. The series can be described thus: 4EPS sufficiency experiment: ultrasonic vocalizations. It is filed as in vivo. The settings on record: 4EPS-treated versus saline-treated mice. The method, then: Male mice produce USVs in response to female mice as an important form of communication (Portfors, 2007). Adult male USV production in response to novel female exposure was measured according to methods described in Grimsley et al., 2011; Scattoni et al., 2011; and Silverman et al., 2010a. Adult males were single-housed one week before testing and exposed for 20 minutes to an unfamiliar adult female mouse each day starting four days prior to testing in order to provide a standardized history of sexual experience and to adjust for differences in social dominance. On testing day, mice were habituated to a novel cage for 10 minutes before exposure to a novel age-matched female. USVs were recorded for 3 minutes using the UltraSoundGate microphone and audio system (Avisoft Bioacoustics). Recordings were analyzed using Avisoft's SASLab Pro software after fast Fourier transformation at 512 FFT-length and detection by a threshold-based algorithm with 5 ms hold time. Data presented reflect duration and number of calls produced in the 3 minute session.
as §1

Series [6] in a line: 4EPS sufficiency experiment: body weight. The class given is in vivo. Conditions: 4EPS- versus control-treated mice. The method, then: as §1
Series [7] concerns claudin 8 and claudin 15. The series can be described thus: IL-6 oral gavage, colon claudin expression. Details: species or system mice. Conditions: in vivo. The method, then: (§2) For in vivo assays, adult mice were gavaged with 5 ug carrier-free recombinant mouse IL-6 (eBioscience) in 1.5% sodium bicarbonate. At 4 hours post-gavage, 1 cm regions of distal, medial and proximal colon were dissected, washed in HBSS and processed for qRT-PCR, as described above. For in vitro assays, adult mice were sacrificed and 1 cm regions of distal, medial and proximal colon were dissected, washed and bisected for colon culture with 0-80 ng/ml IL-6 in complete RPMI media. After 4 hours of culture, colon pieces were harvested and processed for qRT-PCR, as described above.

Series [8] relates to claudin 8 and claudin 15. The series can be described thus: In vitro colon culture with IL-6, claudin expression. The class given is cell-based, mice. Conditions: in vitro colon organ cultures. The method, then:
as §2

The mark [9] stands for this setting: 30 mg/kg i.p. daily, relative to vehicle-treated controls.

Take `Cc1nc2n(c(=O)c1CCN1CCC(c3noc4cc(F)ccc34)CC1)CCCC2` [risperidone]: the social behavior entry with CNTNAP2 knockout mice and in the series on ASD individuals was “inability to improve social behavior” in each case.

For `CCc1ccc(OS(=O)(=O)[O-])cc1.[K+]` [4-ethylphenylsulfate], in the series with naïve wild-type mice [1] (30 mg/kg i.p. daily from 3 to 6 weeks of age), the anxiety-like behavior result is recorded as “sufficient to induce anxiety-like behavior”. Also, in the series with naïve wild-type mice [1] (setting [9]), the “distance traveled in the open field” value is listed as “comparable distances” and the “time in the center arena” value is “less time”. Further, the “number of entries into the center of the field” value in the series with naïve wild-type mice [1] (30 mg/kg i.p. daily, versus vehicle-treated mice) was “no difference”. In addition, the marble burying entry in the series with naïve wild-type mice [2] is reported as “no significant differences”. The PPI result in the series with naïve wild-type mice [3] (5 db or 15 db pre-pulse) is “no significant alterations”. In the series with naïve wild-type mice [3] (120 db pulse), the “intensity of startle in response to the unconditioned primary stimulus” value is reported as “increased intensity of startle”. Besides, the “serum 4EPS” value in series [4] is given as “Time-dependent increases”. Further, the USV behavior entry in the series on naïve wild-type mice [5] is “no significant differences”. The weight entry in [6] is on record as “no difference”.

B1: recombinant IL-6: carrier-free recombinant mouse IL-6 (eBioscience) (protein, UniProt P08505 25-211, looked up)
Interleukin-6: FPTSQVRRGDFTEDTTPNRPVYTTSQVGGLITHVLWEIVEMRKELCNGNSDCMNNDDALAENNLKLPEIQRNDGCYQTGYNQEICLLKISSGLLEYHSYLEYMKNNLKDNKKDKARVLQRDTETLIHIFNQEVKDLHKIVLPTPISNALLTDKLESQKEWLRTKTIQFILKSLEEFLKVTLRSTRQT
Regarding B1, the “colon levels of claudin 8 and claudin 15” value with claudin 8 and claudin 15 [7] was “can modulate”; in the series on claudin 8 and claudin 15 [8], “can modulate”.
